Measured values as given in US20070093410A1, “Selective inhibition of proteasomes of tuberculosis and other bacteria” (President and Fellows of Harvard College, priority 2004, published 2007).
Non-standard residues stand in square brackets, D forms with d. Residues, ends and D or L forms follow the SMILES beside them. No end group written: not given here. *: point of attachment. Biotin = O=C1N[C@H]2[C@H](CS[C@H]2CCCCC(=O)*)N1; Nle = CCCC[C@H](N)C(=O)O; Cbz = O=C(OCc1ccccc1)*

Assays:
[1] = system: SDS-activated 20S mammalian proteasomes; assay: Inhibition of individual active sites of SDS-activated 20S mammalian proteasomes, fluorogenic substrates specific for each active site; assay type: biochemical, rabbit; settings: sites other than the one the inhibitor is specific for; FIG. 1C
Experimental: (§1) FIGS. 1A-1D depict hydrolysis of bKKQ10KK (SEQ ID NO:5) by the trypsin-like active site of the eukaryotic proteasome. A) 80 μM bKKQ10KK (SEQ ID NO:5) was incubated with mammalian (rabbit) 20S proteasomes with or without PA28αβ, 0.02% SDS. B) 35 μM bKKQ10KK (SEQ ID NO:5) was incubated with yeast wild type and ‘open-gate’ (α3ΔN) proteasomes. C) Mammalian 20S proteasomes were treated with inhibitors specific to each active site. D) After inactivation, the proteasomes were further incubated with bKKQ10KK (SEQ ID NO:5).
(§2) To identify which active site of the proteasome cleaved after bKKQ, inhibitors that selectively block the individual active sites were used. SDS-activated 20S mammalian proteasomes were treated with the irreversible inhibitors, 4-hydroxy-5-iodo-3-nitrophenylacetyl-Leu-Leu-vinyl sulfone (NLVS); (Bogyo et al., supra, incorporated herein by reference in its entirety for all purposes), which is specific for the chymotrypsin-like site; Acetyl-Tyr-Arg-Leu-Asn-vinyl sulfone (SEQ ID NO:20) (Ac-YRLN-VS), which reacts primarily with the trypsin-like site (Nazif et al. (2001) Proc. Natl. Acad. Sci. USA 98:2967, incorporated herein by reference in its entirety for all purposes); or with the reversible inhibitor of the caspase-like site, Z-Pro-norLeu-Asp-aldehyde (Z-PnLD-CHO) (Kisselev et al. (2003) supra, incorporated herein by reference in its entirety for all purposes). The extent of inhibition of the different sites was assayed using fluorogenic substrates specific for each active site. […] After inactivation of each type of active site, the proteasomes were incubated with bKKQ10KK. […] Thus, cleavage after bKKQ was due to the activity of the trypsin-like site, presumably because of the two-lysine residues preceding the initial Q residue.

[2] = system: SDS-activated 20S mammalian proteasomes; assay: bKKQ10KK cleavage by 20S mammalian proteasomes after inactivation of each type of active site; assay type: biochemical, rabbit; settings: proteasomes pre-treated with inhibitor, then incubated with bKKQ10KK; FIG. 1D
Experimental: as §1, §2
For 20S proteasomes, 20 mM Hepes (pH 7.5) containing 1 mM dithiothreitol (DTT) was used. For reactions with 26S proteasomes, the buffer also contained 0.5 mM ATP and 2.5 mM MgCl2. All reactions were performed at 37° C. […] The reaction was terminated with 0.4 ml of ice-cold water and fluorescence read at 380 nm excitation and 470 nm emission. […]

eukaryotic proteasomes = assay: Competitive inhibition of hydrolysis of standard fluorogenic substrates by eukaryotic proteasomes; assay type: biochemical
From the text: In contrast to eukaryotic proteasomes, the ancestral particles from the archaebacterium T. acidophilum digested polyQ peptides very rapidly and degraded completely the myoglobin-polyQ fusion protein. Unlike the eukaryotic homologs, these prokaryotic proteasomes contain 14 identical active sites of broad specificity. […] The data presented herein indicate that the trypsin-like sites can cleave after a P1 glutamine if the preceding residue at P2 is a lysine and at P3 a αN-blocked lysine. […] Thus, their failure to degrade polyQ-sequences is due to the inability of their active sites to bind the polyQ repeat, not to the proteasome's unique catalytic mechanism, which is similar in eukaryotic and archaebacterial particles.

yeast 20S proteasomes = assay: Hydrolysis of bKKQ10KK by yeast wild type and 'open-gate' (α3ΔN) 20S proteasomes; assay type: biochemical; settings: 35 μM bKKQ10KK; FIG. 1B
Experimental: as §1
To test whether 20S proteasomes could cleave within a polyQ sequence, a peptide containing 10 Q-residues flanked at each end by two lysine residues to enhance solubility (bKKQ10KK) (SEQ ID NO:8) and biotin on the α amino group was initially used as a substrate. […] Similarly, a mutant form (α3ΔN) of the yeast proteasome with an N-terminal deletion in the α3 subunit, which causes ‘gate-opening’, hydrolyzed bKKQ10KK (SEQ ID NO:8), approximately ten-fold faster than the wild-type (FIG. 1B). Thus, entry of this peptide and its cleavage depends on the presence of an ‘open-gate’ in the α-ring. […]
(§3) For 20S proteasomes, 20 mM Hepes (pH 7.5) containing 1 mM dithiothreitol (DTT) was used. […] The reaction was terminated with 0.4 ml of ice-cold water and fluorescence read at 380 nm excitation and 470 nm emission.

[3] = target: T1, archaebacterial 'open-gate' 20S proteasomes (Thermoplasma acidophilum, UniProt P28061); assay: Hydrolysis of bKKQ20KK by archaebacterial 'open-gate' 20S proteasomes, effect of proteasome inhibitor; assay type: biochemical; settings: 37° C.
T1 sequence (P28061 9-211): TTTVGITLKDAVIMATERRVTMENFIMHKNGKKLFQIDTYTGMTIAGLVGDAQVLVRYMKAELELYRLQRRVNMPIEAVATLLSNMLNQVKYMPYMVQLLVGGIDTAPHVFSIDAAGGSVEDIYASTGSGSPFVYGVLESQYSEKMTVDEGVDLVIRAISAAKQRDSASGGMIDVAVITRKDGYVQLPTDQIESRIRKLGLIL
Experimental: (§4) FIGS. 4A-4B depict multiple cleavages within the polyQ sequence by archaebacterial proteasomes. A) bKKQ20KK (SEQ ID NO:9) (25 μM) was incubated with 0.6 μg of yeast or 250 ng of archaebacterial ‘open-gate’ 20S particles in a total volume of 50 μl. B) Products generated by the archaebacterial proteasomes were analyzed by MALDI-TOF.
(§5) 20S proteasomes of archaebacteria, e.g., Thermoplasma acidophilum, contain 14 identical active sites, which, though originally classified as “chymotrypsin-like” (Dahlmann et al. (1991) Biomed. Biochim. Acta 50:465, incorporated herein by reference in its entirety for all purposes), were later shown to cleave also after basic and acidic residues (Akopian et al., supra). These “less-specific” active sites were tested to determine if they could degrade within a polyQ sequence. […] It was determined that mutant archaebacterial proteasomes lacking this gate (Δ7α) (Benaroudj et al., supra, incorporated herein by reference in its entirety for all purposes) cleaved polyQ peptides and control peptides at least 17 fold faster than the wild-type particles. […]
as §3

rabbit 26S proteasomes = assay: Peptide cleavage by 26S proteasomes (new amino groups, fluorescamine assay); assay type: biochemical; settings: 35 μM peptide, FIG. 2
Experimental: FIG. 2 graphically depicts rapid cleavage of the flanking RRGRR (SEQ ID NO:6) in Q20RRGRR (SEQ ID NO:7) by eukaryotic proteasomes. 35 μM of each of the following peptides bKKQ10KK (SEQ ID NO:8), bKKQ20KK (SEQ ID NO:9), N-extended-KK-Q20-KK (SEQ ID NO:10), Q20RRGRR (SEQ ID NO:7) and a control 20-mer peptide […] (SEQ ID NO:12), lacking any repeat sequence were incubated with 7.2 μg of rabbit 26S particles in a total volume of 40 μl. New amino groups formed were assayed.
Although 26S proteasomes cleaved these polyQ peptides slowly and only after the initial Q residues, they cleaved a Q20 (SEQ ID NO: 30) sequence with RRGRR (SEQ ID NO:6) at its C-terminus 5 to 6-fold faster than other polyQ peptides (FIG. 2) studied and at similar rates to the 20-mer control peptide (though not as fast as YGGFLRRIRPKLK (SEQ ID NO:29), a 13-mer which is cleaved at least 2 times faster).
For 20S proteasomes, 20 mM Hepes (pH 7.5) containing 1 mM dithiothreitol (DTT) was used. For reactions with 26S proteasomes, the buffer also contained 0.5 mM ATP and 2.5 mM MgCl2. All reactions were performed at 37° C. 5 μl aliquots were withdrawn at different times, 50 μl of 0.2M sodium phosphate (pH 6.8) was added and then mixed vigorously with 50 μl fluorescamine for 3 minutes. The reaction was terminated with 0.4 ml of ice-cold water and fluorescence read at 380 nm excitation and 470 nm emission.

[4] = system: T2, Acetyl-Tyr-Arg-Leu-Asn-vinyl sulfone (SEQ ID NO:20)
T2 sequence: YRLN

[5] = system: bovine PA 28alpha-beta (Boston Biochem, Inc.)
bKKQ10KK (SEQ ID NO:8) = system: T3, bKKQ10KK (SEQ ID NO:8)
T3 sequence: KKQQQQQQQQQQKK

bKKQ20KK (SEQ ID NO:9) = system: T4, bKKQ20KK (SEQ ID NO:9)
T4 sequence: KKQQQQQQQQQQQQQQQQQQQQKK

[6] = target: T1, archaebacterial 'open-gate' 20S proteasomes; assay: Cleavage of polyQ peptides by archaebacterial 'open-gate' (Δ7α) 20S proteasomes; assay type: biochemical; settings: half the concentration of the yeast particles, 37° C.
Experimental: as §4, §5, §3

Question: “4-hydroxy-5-iodo-3-nitrophenylacetyl-Leu-Leu-vinyl sulfone [NLVS]” was tested. Which “effect on the other two peptidase activities” value [1] did it give?
Answer: The value was “without significantly affecting the other two”.

Question: And the “reduction of bKKQ10KK cleavage” value [2]?
Answer: The value was “no significant effect”.

Question: How did the “competitive inhibition of hydrolysis of standard fluorogenic substrates” value (eukaryotic proteasomes) turn out when “bKKQ10KK: peptide containing 10 Q-residues flanked at each end by two lysine residues, biotin on the α amino group (SEQ ID NO:8) (Biotin-KKQQQQQQQQQQKK)” was run?
Answer: The value was “could not competitively inhibit”.

Question: What about the “hydrolysis rate by α3ΔN mutant relative to wild-type yeast proteasome” value (yeast 20S proteasomes) of the same molecule?
Answer: The value was “approximately ten-fold”.

Question: Which “inhibition of bKKQ20KK hydrolysis” value [3] does the source give for `CC(C)C[C@@H](C=O)NC(=O)[C@H](CC(C)C)NC(=O)[C@H](CC(C)C)NC(=O)OCc1ccccc1` [MG132] (Cbz-Leu-Leu-Leu-aldehyde) here?
Answer: Its value is “inhibited this process”.

Question: “Q20RRGRR: Q20 sequence with RRGRR at its C-terminus (SEQ ID NO:7) (QQQQQQQQQQQQQQQQQQQQRRGRR; Peptide generated by solid-phase peptide synthesis)” was tested. Which “cleavage rate relative to other polyQ peptides” value (rabbit 26S proteasomes) did it give?
Answer: The value was 5 to 6 fold.

Question: With “Acetyl-Tyr-Arg-Leu-Asn-vinyl sulfone (Ac-YRLN-{vinyl sulfone}) [Ac-YRLN-VS]” as the molecule, how does the “effect on the other two peptidase activities” value [1] read?
Answer: Its value is “without significantly affecting the other two”.

Question: And the “reduction of bKKQ10KK cleavage” value [2]?
Answer: The value was “about 70%”.

Question: How did the “decrease in the individual peptidase activities (fluorogenic substrates specific for each active site)” value [4] turn out when rabbit 20S proteasomes was run?
Answer: The value was “Each inhibitor caused an 85%-95% decrease in the individual peptidase activities without significantly affecting the other two”.

Question: What about the “reduction of bKKQ10KK cleavage” value [4] of the same molecule?
Answer: Its value is “Treatment with Ac-YRLN-VS (SEQ ID NO:20) reduced bKKQ10KK (SEQ ID NO:8) cleavage by about 70%”.

Question: What about the “hydrolysis of bKKQ10KK and of standard fluorogenic peptide substrates” value [5] of the same molecule?
Answer: Its value is “Rabbit 20S proteasomes, when purified in their latent state, were inactive against bKKQ10KK (SEQ ID NO:8) (FIG. 1A) or against standard fluorogenic peptide substrates, unless PA28αβ, or 0.02% SDS was added”.

Question: Which results are given for `CCCC[C@H](NC(=O)[C@@H]1CCCN1C(=O)OCc1ccccc1)C(=O)N[C@H](C=O)CC(=O)O` [Z-PnLD-CHO, Z-Pro-norLeu-Asp-aldehyde] (Cbz-Pro-[Nle]-Asp-aldehyde)?
Answer: effect on the other two peptidase activities [1]: without significantly affecting the other two; reduction of bKKQ10KK cleavage [2]: no significant effect

Question: With “archaebacterial 'open-gate' 20S proteasomes (delta7alpha) of Thermoplasma acidophilum” as the molecule, how does the “rate of peptide cleavage against yeast 'open-gate' 20S proteasomes, 37° C.” value (bKKQ10KK (SEQ ID NO:8)) read?
Answer: Its value is “cleaved both bKKQ10KK (SEQ ID NO:8) and bKKQ20KK (SEQ ID NO:9) at least 70 times faster than the yeast ‘open-gate’ 20S proteasomes”.

Question: And the “rate of peptide cleavage against yeast 'open-gate' 20S proteasomes, 37° C.” value (bKKQ20KK (SEQ ID NO:9))?
Answer: Its value is “cleaved both bKKQ10KK (SEQ ID NO:8) and bKKQ20KK (SEQ ID NO:9) at least 70 times faster than the yeast ‘open-gate’ 20S proteasomes”.

Question: How did the “time to complete consumption of the peptide” value [6] turn out when “bKKQ20KK: Q20 sequence flanked by two lysine residues on each end and biotin on the α amino group (SEQ ID NO:9) (Biotin-KKQQQQQQQQQQQQQQQQQQQQKK)” was run?
Answer: Its value is at most 45 min.
